Source: PubChem BioAssay AID328 (DTP/NCI, 2004)
Where “and” joins values, the source holds several entries; their conditions need not be identical. Equal entries are not always repeated. Inconclusive results and toxic doses are left out.

System: BDF1 mice, P388 leukemia ip, median survival T/C
Assay: NCI In Vivo Anticancer Drug Screen. Data for tumor model P388 Leukemia (intraperitoneal) in B6D2F1 (BDF1) mice
Conditions: endpoint: median survival time, higher = longer survival
Method in brief: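 T/C = treated-group survival ÷ vehicle-control survival; tumour transplanted into mice before dosing.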

[1] = dose: 50.0 mg/kg/injection, schedule: Q04DX003 (ip), vehicle: saline with Tween-80
[2] = dose: 100.0 mg/kg/injection, schedule: Q04DX003 (ip), vehicle: saline with Tween-80
[3] = dose: 100.0 mg/kg/injection, schedule: Q01DX009 (ip), vehicle: saline with Tween-80
[4] = dose: 200.0 mg/kg/injection, schedule: Q01DX009 (ip), vehicle: saline with Tween-80
[5] = dose: 200.0 mg/kg/injection, schedule: Q04DX003 (ip), vehicle: saline with Tween-80
[6] = dose: 400.0 mg/kg/injection, schedule: Q01DX009 (ip), vehicle: saline with Tween-80
[7] = dose: 400.0 mg/kg/injection, schedule: Q04DX003 (ip), vehicle: saline with Tween-80
[8] = dose: 50.0 mg/kg/injection, schedule: Q01DX009 (ip), vehicle: Klucel (hydroxypropylcellulose) (HPC)
[9] = dose: 100.0 mg/kg/injection, schedule: Q01DX009 (ip), vehicle: Klucel (hydroxypropylcellulose) (HPC)
[10] = dose: 200.0 mg/kg/injection, schedule: Q01DX009 (ip), vehicle: Klucel (hydroxypropylcellulose) (HPC)
[11] = dose: 25.0 mg/kg/injection, schedule: Q01DX009 (ip), vehicle: Klucel (hydroxypropylcellulose) (HPC)
[12] = dose: 100.0 mg/kg/injection, schedule: Q01DX001 (ip), vehicle: saline with Tween-80
[13] = dose: 200.0 mg/kg/injection, schedule: Q01DX001 (ip), vehicle: saline with Tween-80
[14] = dose: 400.0 mg/kg/injection, schedule: Q01DX001 (ip), vehicle: saline with Tween-80
[15] = dose: 100.0 mg/kg/injection, schedule: Q04DX003 (ip), vehicle: Klucel (hydroxypropylcellulose) (HPC)
[16] = dose: 50.0 mg/kg/injection, schedule: Q01DX009 (ip), vehicle: saline with Tween-80
[17] = dose: 200.0 mg/kg/injection, schedule: Q04DX003 (ip), vehicle: Klucel (hydroxypropylcellulose) (HPC)
[18] = dose: 400.0 mg/kg/injection, schedule: Q04DX003 (ip), vehicle: Klucel (hydroxypropylcellulose) (HPC)

## O=[N+]([O-])/C=C/c1ccc([N+](=O)[O-])cc1
[1]
  T/C: 118 % of control
[2]
  T/C: 118 % of control

## c1ccc(-c2nnc3oc(-c4ccco4)nn23)cc1
[3]
  T/C: 91 % of control
[2]
  T/C: 90 % of control
[4]
  T/C: 108 % of control
[5]
  T/C: 100 % of control
[6]
  T/C: 100 % of control
[7]
  T/C: 95 % of control

## COc1cc(N(CCCl)CCCl)c(OC)cc1/C=N\Nc1nncn1N
dose: 2.2 mg/kg/injection, schedule: Q01DX009 (ip), vehicle: saline
  T/C: 168 % of control
dose: 3.3 mg/kg/injection, schedule: Q01DX009 (ip), vehicle: saline
  T/C: 163 % of control
dose: 5.0 mg/kg/injection, schedule: Q01DX009 (ip), vehicle: saline
  T/C: 186 % of control
dose: 5.0 mg/kg/injection, schedule: Q04DX003 (ip), vehicle: saline
  T/C: 179 % of control
dose: 6.25 mg/kg/injection, schedule: Q01DX009 (ip), vehicle: saline
  T/C: 172 % of control
dose: 7.5 mg/kg/injection, schedule: Q01DX009 (ip), vehicle: saline
  T/C: 240 % of control
dose: 10.0 mg/kg/injection, schedule: Q04DX003 (ip), vehicle: saline
  T/C: 212 % of control
dose: 12.5 mg/kg/injection, schedule: Q01DX009 (ip), vehicle: saline
  T/C: 90 % of control
dose: 20.0 mg/kg/injection, schedule: Q04DX003 (ip), vehicle: saline
  T/C: 108 % of control
dose: 25.0 mg/kg/injection, schedule: Q01DX009 (ip), vehicle: saline
  T/C: 86 % of control
dose: 25.0 mg/kg/injection, schedule: Q04DX003 (ip), vehicle: saline sonified
  T/C: 177 % of control

## Cc1c(NC(=O)Nc2ccccc2F)c(=O)n(-c2ccccc2)n1C
[8]
  T/C: 100 % of control
[9]
  T/C: 90 % of control
[10]
  T/C: 95 % of control

## O=c1cc(Cl)[nH]c(=O)[nH]1
[1]
  T/C: 97 % of control
[2]
  T/C: 114 % of control
[5]
  T/C: 97 % of control
[7]
  T/C: 97 % of control

## C/C(=C\COc1ccc2ccc(=O)oc2c1)C1=CC(=O)C(C)(C)O1
[11]
  T/C: 93 % of control
[8]
  T/C: 94 % of control
[12]
  T/C: 100 % of control
[9]
  T/C: 87 % of control
[3]
  T/C: 115 % of control
[13]
  T/C: 103 % of control
[10]
  T/C: 95 % of control
[14]
  T/C: 100 % of control

## O=c1cc(CBr)c2ccccc2[nH]1
dose: 6.25 mg/kg/injection, schedule: Q04DX003 (ip), vehicle: saline with Tween-80
  T/C: 91 % of control
dose: 12.5 mg/kg/injection, schedule: Q04DX003 (ip), vehicle: saline with Tween-80
  T/C: 104 % of control
dose: 25.0 mg/kg/injection, schedule: Q04DX003 (ip), vehicle: saline with Tween-80
  T/C: 104 % of control

## CC(=O)O[C@H]1CC[C@H]2[C@@H]3CC[C@H]4C[C@@H]5[C@H](C[C@]4(C)[C@H]3CC[C@]12C)C5(F)F
dose: 3.12 mg/kg/injection, schedule: Q04DX003 (ip), vehicle: Klucel (hydroxypropylcellulose) (HPC)
  T/C: 100 % of control
dose: 6.25 mg/kg/injection, schedule: Q01DX009 (ip), vehicle: Klucel (hydroxypropylcellulose) (HPC)
  T/C: 88 % of control
dose: 6.25 mg/kg/injection, schedule: Q04DX003 (ip), vehicle: Klucel (hydroxypropylcellulose) (HPC)
  T/C: 100 % of control
dose: 12.5 mg/kg/injection, schedule: Q01DX009 (ip), vehicle: Klucel (hydroxypropylcellulose) (HPC)
  T/C: 92 % of control
dose: 12.5 mg/kg/injection, schedule: Q04DX003 (ip), vehicle: Klucel (hydroxypropylcellulose) (HPC)
  T/C: 100 % of control
[11]
  T/C: 100 % of control
[15]
  T/C: 100 % of control

## O=C(O)CCC(=O)O
dose: 10.0 mg/kg/injection, schedule: Q01DX009 (ip), vehicle: saline
  T/C: 101 % of control and 122 % of control and 100 % of control
dose: 10.0 mg/kg/injection, schedule: Q01DX009 (ip), vehicle: water
  T/C: 111 % of control and 98 % of control
dose: 20.0 mg/kg/injection, schedule: Q01DX009 (ip), vehicle: saline
  T/C: 105 % of control and 115 % of control and 106 % of control
dose: 20.0 mg/kg/injection, schedule: Q01DX009 (ip), vehicle: water
  T/C: 117 % of control and 120 % of control
dose: 25.0 mg/kg/injection, schedule: Q01DX009 (ip), vehicle: other
  T/C: 105 % of control and 120 % of control
dose: 40.0 mg/kg/injection, schedule: Q01DX009 (ip), vehicle: saline
  T/C: 109 % of control and 108 % of control
dose: 40.0 mg/kg/injection, schedule: Q01DX009 (ip), vehicle: water
  T/C: 124 % of control and 100 % of control
dose: 50.0 mg/kg/injection, schedule: Q01DX009 (ip), vehicle: other
  T/C: 103 % of control and 102 % of control
dose: 80.0 mg/kg/injection, schedule: Q01DX009 (ip), vehicle: saline
  T/C: 108 % of control and 117 % of control
dose: 80.0 mg/kg/injection, schedule: Q01DX009 (ip), vehicle: water
  T/C: 115 % of control and 117 % of control
dose: 100.0 mg/kg/injection, schedule: Q01DX009 (ip), vehicle: other
  T/C: 102 % of control and 119 % of control
dose: 160.0 mg/kg/injection, schedule: Q01DX009 (ip), vehicle: saline
  T/C: 114 % of control and 110 % of control
dose: 160.0 mg/kg/injection, schedule: Q01DX009 (ip), vehicle: water
  T/C: 98 % of control and 124 % of control
dose: 200.0 mg/kg/injection, schedule: Q01DX009 (ip), vehicle: other
  T/C: 110 % of control
dose: 200.0 mg/kg/injection, schedule: Q01DX009 (ip), vehicle: saline
  T/C: 99 % of control and 115 % of control

## CC(C)(C)NC1=NCCO1
dose: 25.0 mg/kg/injection, schedule: Q01DX009 (ip), vehicle: saline with Tween-80
  T/C: 100 % of control
[16]
  T/C: 100 % of control
[3]
  T/C: 100 % of control

## CC#CCOCC(CCl)OC(=O)Nc1ccccc1 (configuration not stated)
[3]
  T/C: 100 % of control
[2]
  T/C: 120 % of control
[4]
  T/C: 112 % of control
[5]
  T/C: 110 % of control
[6]
  T/C: 108 % of control
[7]
  T/C: 100 % of control

## CN1C(=O)C(C2(C3C(=O)N(C)C(=O)N(C)C3=O)C(=O)N(C)C(=O)N(C)C2=O)C(=O)N(C)C1=O
[12]
  T/C: 108 % of control
[13]
  T/C: 104 % of control
[14]
  T/C: 102 % of control

## CN1CSC(=S)N(Cc2ccccc2)C1
[16]
  T/C: 90 % of control
[3]
  T/C: 90 % of control

## Brc1cnn2c1NCC2
dose: 12.5 mg/kg/injection, schedule: Q01DX009 (ip), vehicle: water
  T/C: 100 % of control
dose: 25.0 mg/kg/injection, schedule: Q01DX009 (ip), vehicle: water
  T/C: 93 % of control
dose: 25.0 mg/kg/injection, schedule: Q04DX003 (ip), vehicle: water
  T/C: 109 % of control and 114 % of control
dose: 50.0 mg/kg/injection, schedule: Q01DX009 (ip), vehicle: water
  T/C: 98 % of control
dose: 50.0 mg/kg/injection, schedule: Q04DX003 (ip), vehicle: water
  T/C: 95 % of control and 118 % of control
dose: 100.0 mg/kg/injection, schedule: Q01DX009 (ip), vehicle: water
  T/C: 97 % of control
dose: 100.0 mg/kg/injection, schedule: Q04DX003 (ip), vehicle: water
  T/C: 95 % of control and 114 % of control
dose: 200.0 mg/kg/injection, schedule: Q01DX009 (ip), vehicle: water
  T/C: 93 % of control
dose: 200.0 mg/kg/injection, schedule: Q04DX003 (ip), vehicle: water
  T/C: 93 % of control

## C/C=C(\C)C(=O)OC1CC[N+]2([O-])CCC(COC(=O)/C(=C/C)CO)C12 (configuration not stated)
dose: 30.0 mg/kg/injection, schedule: Q01DX010 (ip), vehicle: saline
  T/C: 111 % of control
dose: 60.0 mg/kg/injection, schedule: Q01DX010 (ip), vehicle: saline
  T/C: 111 % of control
dose: 100.0 mg/kg/injection, schedule: Q01DX010 (ip), vehicle: saline
  T/C: 116 % of control

## c1ccc(-c2c[nH]c(-c3ccccc3)c2)cc1
[15]
  T/C: 104 % of control
[17]
  T/C: 109 % of control
[18]
  T/C: 109 % of control

## O=C(O)CC(O)(CC(=O)O)C(=O)O
dose: 50.0 mg/kg/injection, schedule: Q02DX005 (ip), vehicle: water
  T/C: 123 % of control
dose: 100.0 mg/kg/injection, schedule: Q02DX005 (ip), vehicle: water
  T/C: 114 % of control
dose: 400.0 mg/kg/injection, schedule: Q02DX005 (ip), vehicle: water
  T/C: 94 % of control

## CCOC(=O)c1c(OCCCc2ccc(F)cc2)cc2ccc3ccccc3c2c1OCCCc1ccc(F)cc1
[2]
  T/C: 86 % of control
[5]
  T/C: 87 % of control
[7]
  T/C: 103 % of control

## CCN(CC)c1ccc(/C=C/c2ccncc2)cc1
[15]
  T/C: 100 % of control
[17]
  T/C: 100 % of control
[18]
  T/C: 109 % of control
